“Also recorded” adds a separate entry of the source. Read-outs that look alike come from different tables or passages of the source.
What was measured:
ENPP1 [1] = settings: read-out: ENPP1 IC50, cited from earlier work
[2] = system: HEK293 (human embryonic kidney cell line); test: MTT cytotoxicity assay, HEK293; format: cell-based; settings: for inhibition at 100 µM: Homo sapiens, HEK293, 24 h, read-out: HEK293 (% inhibition ±SD)
ENPP3 [3] = target: T1, ENPP3 (Homo sapiens, UniProt O14638); test: Enzyme kinetic study, Lineweaver-Burk plots, ENPP3; format: biochemical; settings: triplicates
T1 sequence (O14638 1-875): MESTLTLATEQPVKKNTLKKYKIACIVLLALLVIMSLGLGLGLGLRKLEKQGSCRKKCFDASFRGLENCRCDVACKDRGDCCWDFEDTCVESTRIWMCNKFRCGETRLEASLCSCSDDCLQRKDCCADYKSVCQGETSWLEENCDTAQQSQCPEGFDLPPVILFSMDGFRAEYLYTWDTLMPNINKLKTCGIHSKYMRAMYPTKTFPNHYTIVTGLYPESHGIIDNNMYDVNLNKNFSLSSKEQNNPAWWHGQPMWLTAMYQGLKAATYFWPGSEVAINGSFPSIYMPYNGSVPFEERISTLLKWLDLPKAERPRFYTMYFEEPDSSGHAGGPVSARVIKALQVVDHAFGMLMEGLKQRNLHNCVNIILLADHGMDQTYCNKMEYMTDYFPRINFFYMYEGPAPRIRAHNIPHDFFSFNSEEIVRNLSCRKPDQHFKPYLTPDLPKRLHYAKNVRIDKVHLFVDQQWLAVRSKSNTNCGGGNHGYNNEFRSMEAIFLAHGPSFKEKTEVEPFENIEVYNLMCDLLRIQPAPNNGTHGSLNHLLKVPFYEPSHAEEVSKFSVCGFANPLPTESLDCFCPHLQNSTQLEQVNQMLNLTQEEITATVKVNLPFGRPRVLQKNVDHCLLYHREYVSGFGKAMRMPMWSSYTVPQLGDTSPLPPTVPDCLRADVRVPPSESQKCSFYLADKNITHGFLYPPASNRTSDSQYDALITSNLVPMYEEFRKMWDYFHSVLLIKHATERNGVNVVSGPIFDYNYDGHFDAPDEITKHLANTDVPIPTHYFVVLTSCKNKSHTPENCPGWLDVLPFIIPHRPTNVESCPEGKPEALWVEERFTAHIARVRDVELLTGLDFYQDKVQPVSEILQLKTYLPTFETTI

ENPP1 [4] = target: T2, ENPP1 (Homo sapiens, UniProt P22413); test: ENPP1 enzyme inhibition assay; format: biochemical
T2 sequence (P22413 1-925): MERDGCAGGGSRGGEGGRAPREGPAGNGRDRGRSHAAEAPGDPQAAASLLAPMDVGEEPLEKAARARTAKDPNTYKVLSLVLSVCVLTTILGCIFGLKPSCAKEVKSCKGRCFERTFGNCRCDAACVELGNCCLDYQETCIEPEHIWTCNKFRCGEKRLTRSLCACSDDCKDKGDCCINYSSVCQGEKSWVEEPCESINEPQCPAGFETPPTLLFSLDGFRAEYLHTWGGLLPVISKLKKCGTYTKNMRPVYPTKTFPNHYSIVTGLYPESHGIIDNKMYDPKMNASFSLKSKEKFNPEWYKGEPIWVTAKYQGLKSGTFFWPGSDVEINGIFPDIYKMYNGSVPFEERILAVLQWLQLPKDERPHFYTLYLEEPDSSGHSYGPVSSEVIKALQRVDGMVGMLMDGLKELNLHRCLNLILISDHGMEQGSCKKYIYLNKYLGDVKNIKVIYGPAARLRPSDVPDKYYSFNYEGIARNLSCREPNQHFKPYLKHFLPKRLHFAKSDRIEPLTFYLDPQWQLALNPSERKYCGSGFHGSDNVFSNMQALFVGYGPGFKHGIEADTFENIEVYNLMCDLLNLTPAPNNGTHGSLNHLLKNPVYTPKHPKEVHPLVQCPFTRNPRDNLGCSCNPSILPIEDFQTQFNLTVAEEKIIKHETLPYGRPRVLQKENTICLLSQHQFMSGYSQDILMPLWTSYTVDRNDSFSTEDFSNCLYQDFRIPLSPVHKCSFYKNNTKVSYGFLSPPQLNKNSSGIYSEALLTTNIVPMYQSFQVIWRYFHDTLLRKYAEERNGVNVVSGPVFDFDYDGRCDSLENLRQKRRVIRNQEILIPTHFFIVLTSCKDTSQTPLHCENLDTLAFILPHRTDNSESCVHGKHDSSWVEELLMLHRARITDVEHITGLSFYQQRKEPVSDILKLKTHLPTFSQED

ENPP3 [5] = target: T1, ENPP3; test: ENPP3 enzyme inhibition assay; format: biochemical
[6] = system: MCF7 (human breast cancer cell line); test: MTT cytotoxicity assay, MCF7; format: cell-based; settings: MCF7, 24 h, read-out: MCF7 (% inhibition ±SD)
[7] = system: HeLa (human cervical cancer cell line); test: MTT cytotoxicity assay, HeLa; format: cell-based; settings: 100 μM compound, 24 h treatment, triplicate
ENPP1 [8] = target: T2, ENPP1; test: Enzyme kinetic study, Lineweaver-Burk plots, ENPP1; format: biochemical; settings: triplicates

SMILES: Cc1ccc(S(=O)(=O)Oc2ccc(-c3sc4cc(OS(=O)(=O)c5ccc(C)cc5)ccc4c3C(=O)c3ccc(OCCN4CCCCC4)cc3)cc2)cc1 [3-(4-(2-(piperidin-1-yl)ethoxy)benzoyl)-2-(4-(tosyloxy)phenyl)benzo[b]thiophen-6-yl-4-methylbenzenesulfonate]
- IC50 (ENPP1 [1]; selective inhibition of ENPP1): 0.45 µM

SMILES: Cc1ccc(S(=O)(=O)Oc2ccc(NC(=O)C3(C)c4ccccc4-c4ccccc43)cc2)cc1 [7e, 4-(9-Methyl-9H-fluorene-9-carboxamido)phenyl 4-Methylbenzenesulfonate]
- inhibition at 100 µM [2]: 12.4 ± 1.42%
- mode of inhibition of ENPP3 (ENPP3 [3]): competitively
- IC50 (ENPP1 [4]): 18.9 ± 0.54 µM
- IC50 (ENPP3 [5]): 0.38 ± 0.13 µM
- inhibition at 100 µM [6]: 0.3 ± 0.15%

SMILES: N.N.[Cl][Pt][Cl] [cisplatin, reference compound]
- HEK293 (% inhibition ±SD) ([2]; 100 μM compound, MTT, 24 h treatment, triplicate, normal cell line): 65.5 ± 1.48%
- HeLa cell line (% inhibition ±SD) [7]: 84.3 ± 2.72%

SMILES: CCCCc1ccc(S(=O)(=O)Oc2ccc(NC(=O)c3ccc(C)cc3)cc2)cc1 [4j, 4-(4-Methylbenzamido)phenyl 4-Butylbenzenesulfonate]
- inhibition at 100 µM [2]: 27.6 ± 2.55%
- mode of inhibition of ENPP1 (ENPP1 [8]): uncompetitive; also recorded: uncompetitively
- IC50 (ENPP1 [4]): 0.23 ± 0.03 µM
- inhibition at 100 µM (ENPP3 [5]; read-out: ENPP3 % inhibition ± SD): 42.1 ± 3.43%
- inhibition at 100 µM [6]: 13.3 ± 0.73%

SMILES: O=C(NS(=O)(=O)c1ccccc1)n1ccc2cccnc21 [N-(pyrrolo[2,3-b]pyridine-1-carbonyl)benzenesulfonamide]
- IC50 (ENPP1 [1]; selective inhibitor of ENPP1): 4.5 ± 0.16 µM
